Values after ≈ are worked out from the molar mass of the structure shown. Read-outs that look alike come from different tables or passages of the source.
Experiments:
[1] = target: T1, full-length beta-Catenin (Uniprot ID P35222) (Homo sapiens, UniProt P35222); experiment: Fluorescence polarization IC50 (beta-catenin / 5FAM-TCF4 10-53 competition); format: binding; conditions: read-out: beta-Catenin FP IC50
T1 construct: 10 nM full-length beta-Catenin (Uniprot ID P35222)
T1 sequence (P35222 1-781): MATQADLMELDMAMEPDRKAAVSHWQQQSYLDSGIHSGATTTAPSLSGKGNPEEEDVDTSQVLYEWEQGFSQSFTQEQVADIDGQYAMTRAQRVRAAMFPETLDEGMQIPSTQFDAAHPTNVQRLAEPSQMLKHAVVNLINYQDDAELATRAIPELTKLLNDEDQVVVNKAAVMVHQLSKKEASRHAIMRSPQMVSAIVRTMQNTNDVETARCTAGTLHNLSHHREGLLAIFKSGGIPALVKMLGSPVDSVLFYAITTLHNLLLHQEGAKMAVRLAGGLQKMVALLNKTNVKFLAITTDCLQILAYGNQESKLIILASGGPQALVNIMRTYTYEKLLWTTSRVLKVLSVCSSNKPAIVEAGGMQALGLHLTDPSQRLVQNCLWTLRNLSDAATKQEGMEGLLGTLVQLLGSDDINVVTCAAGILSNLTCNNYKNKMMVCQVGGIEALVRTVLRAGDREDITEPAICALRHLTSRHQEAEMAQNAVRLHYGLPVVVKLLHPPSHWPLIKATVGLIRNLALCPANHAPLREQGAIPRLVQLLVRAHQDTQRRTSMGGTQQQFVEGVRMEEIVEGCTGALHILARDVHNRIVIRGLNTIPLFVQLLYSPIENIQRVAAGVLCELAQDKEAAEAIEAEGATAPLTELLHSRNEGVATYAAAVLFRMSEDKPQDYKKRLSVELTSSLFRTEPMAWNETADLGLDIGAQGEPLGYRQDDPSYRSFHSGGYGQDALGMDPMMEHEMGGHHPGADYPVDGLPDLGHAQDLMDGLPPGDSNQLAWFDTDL

CHI Log D procedure = format: physicochemical; conditions: pH 7.4, CHI Log D
Solubility in PBS = format: physicochemical
Summary of the method: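 HPLC quantitation of peptide remaining in the PBS supernatant after ultracentrifugation, referenced to a 50 μM solution in DMSO.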

[2] = target: T2, beta-catenin/TCF4 engagement (Homo sapiens, UniProt P35222); experiment: Nano-BRET target engagement assay (B-cat-Halo & TCF4-Luc in HEK293 cells); format: cell-based; conditions: absolute IC50; read-out: NanoBRET Abs IC50
T2 construct: expressed in transfected cells; host or cells: HEK293
T2 sequence (P35222 1-781): T1 sequence (P35222 1-781)

[3] = tested on: TCF/LEF luciferase Reporter in DLD1 cells; experiment: TCF reporter assay (DLD1 TCF/LEF luciferase reporter, Bright-Glo); format: cell-based
Summary of the method: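 DLD1 cells stably carrying a TCF/LEF luciferase reporter were plated at 5000 cells/well in RPMI + 4% FBS and treated overnight with a 1:2 compound dilution series. Bright-Glo luminescence read on day 3; viability by CellTiter-Glo. Absolute IC50 determined.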

[4] = absolute IC50, read-out: DLD1 reporter assay Abs IC50
[5] = read-out: DLD1 4% Abs IC50, DLD1 4%

SMILES: CC(=O)N1CCC[C@]12CC=CCCCC1(CCCC=CCCCOC(=O)N3CC[C@@](C(=O)N[C@@H](Cc4ccccc4Cl)C(=O)N[C@@H](Cc4csc5ccccc45)C(=O)N[C@@H](CO)C(N)=O)(C3)NC(=O)[C@H]([C@@H](C)O)NC(=O)[C@H](Cc3ccccc3)NC(=O)[C@H](C)NC(=O)[C@H](C)NC(=O)[C@H](CC(=O)O)NC(=O)[C@H](CC(=O)O)NC1=O)NC(=O)[C@H](CC(C)(C)C)NC(=O)[C@H](CC(=O)O)NC2=O (stereo partly drawn) [I-1015, Ac-PL3-Asp-Npg-B5-Asp-Asp-Ala-Ala-Phe-Thr-PyrS2-2C1F-BztA-Ser-NH2]
- IC50 [1]: 0.005 µM
- chromatographic logD (CHI Log D procedure): 2.27
- Solubility (Solubility in PBS; Solubility (uM)): 47 µM (≈ 88.9 µg/mL)
- IC50 [2]: 8.9 µM
- IC50 [3, 4]: 9 µM
- IC50 [3, 5]: 5.7 µM

SMILES: CC(=O)N1CCC[C@]12CC=CCCCC1(CCCC=CCCCOC(=O)N3CC[C@@](C(=O)N[C@@H](Cc4ccccc4Cl)C(=O)N[C@@H](Cc4csc5ccccc45)C(=O)N[C@@H](CO)C(N)=O)(C3)NC(=O)[C@H]([C@@H](C)O)NC(=O)[C@H](Cc3ccccc3)NC(=O)[C@H](C)NC(=O)[C@H](C)NC(=O)[C@H](CC(N)=O)NC(=O)[C@H](CC(=O)O)NC1=O)NC(=O)[C@H](CC(C)(C)C)NC(=O)[C@H](CC(=O)O)NC2=O (stereo partly drawn) [I-1016, Ac-PL3-Asp-Npg-B5-Asp-Asn-Ala-Ala-Phe-Thr-PyrS2-2ClF-BztA-Ser-NH2]
- IC50 [1]: 0.008 µM
- chromatographic logD (CHI Log D procedure): 2.38
- Solubility (Solubility in PBS): 10 µM (≈ 18.9 µg/mL)
- IC50 [2]: 21.4 µM
- IC50 [3, 4]: 21.4 µM

SMILES: CC(=O)N1CCC[C@]12CC=CCCCC1(CCCC=CCCCOC(=O)N3CC[C@@](C(=O)N[C@@H](Cc4ccccc4Cl)C(=O)N[C@@H](Cc4csc5ccccc45)C(=O)N[C@@H](CCC(N)=O)C(N)=O)(C3)NC(=O)[C@H](CO)NC(=O)[C@H](Cc3ccccc3)NC(=O)[C@H](C)NC(=O)[C@H](C)NC(=O)[C@H](CC(=O)O)NC(=O)[C@H](CC(=O)O)NC1=O)NC(=O)[C@H](CC(C)(C)C)NC(=O)[C@H](CC(=O)O)NC2=O (stereo partly drawn) [I-1017, Ac-PL3-Asp-Npg-B5-Asp-Asp-Ala-Ala-Phe-Ser-PyrS2-2C1F-BztA-Gln-NH2]
- IC50 [1]: 0.005 µM
- chromatographic logD (CHI Log D procedure): 2.11
- Solubility (Solubility in PBS; Solubility (uM)): 48 µM (≈ 92.1 µg/mL)
- IC50 [2]: 8.9 µM
- IC50 [3, 4]: > 20 µM

SMILES: CC(=O)N1CCC[C@]12CC=CCCCC1(CCCC=CCCCOC(=O)N3CC[C@@](C(=O)N[C@@H](Cc4ccccc4Cl)C(=O)N[C@@H](Cc4csc5ccccc45)C(=O)N[C@@H](CO)C(N)=O)(C3)NC(=O)[C@H](CO)NC(=O)[C@H](Cc3ccccc3)NC(=O)[C@H](C)NC(=O)[C@H](C)NC(=O)[C@H](CC(=O)O)NC(=O)[C@H](CC(=O)O)NC1=O)NC(=O)[C@H](CC(C)(C)C)NC(=O)[C@H](CC(=O)O)NC2=O (stereo partly drawn) [I-1019, Ac-PL3-Asp-Npg-B5-Asp-Asp-Ala-Ala-Phe-Ser-PyrS2-2C1F-BztA-Ser-NH2]
- IC50 [1]: 0.005 µM
- chromatographic logD (CHI Log D procedure): 2.22
- Solubility (Solubility in PBS; Solubility (uM)): 48 µM (≈ 90.2 µg/mL)
- IC50 [2]: 9.6 µM
- IC50 [3, 4]: 8.3 µM
- IC50 [3, 5]: 7.8 µM

SMILES: CC(=O)N1CCC[C@]12CC=CCCCC1(CCCC=CCCCOC(=O)N3CC[C@@](C(=O)N[C@@H](Cc4ccccc4Cl)C(=O)N[C@@H](Cc4csc5ccccc45)C(=O)N[C@@H](C(N)=O)[C@H](C)O)(C3)NC(=O)[C@H](CC(N)=O)NC(=O)[C@H](Cc3ccccc3)NC(=O)[C@H](C)NC(=O)[C@H](C)NC(=O)[C@H](CC(=O)O)NC(=O)[C@H](CC(=O)O)NC1=O)NC(=O)[C@H](CC(C)(C)C)NC(=O)[C@H](CC(=O)O)NC2=O (stereo partly drawn) [I-1028, Ac-PL3-Asp-Npg-B5-Asp-Asp-Ala-Ala-Phe-Asn-PyrS2-2C1F-BztA-dThr-NH2]
- IC50 [1]: 0.013 µM
- chromatographic logD (CHI Log D procedure): 2.4
- Solubility (Solubility in PBS): 10 µM (≈ 19.2 µg/mL)
- IC50 [2]: 8.7 µM
- IC50 [3, 4]: 6.4 µM
- IC50 [3, 5]: 3.6 µM

SMILES: CC(=O)N1CCC[C@]12CC=CCCCC1(CCCC=CCCCOC(=O)N3CC[C@@](C(=O)N[C@@H](Cc4ccccc4Cl)C(=O)N[C@@H](Cc4csc5ccccc45)C(=O)N[C@@H](C(N)=O)[C@H](C)O)(C3)NC(=O)[C@H](CC(N)=O)NC(=O)[C@H](Cc3ccccc3)NC(=O)[C@H](C)NC(=O)[C@H](C)NC(=O)[C@H](CC(=O)O)NC(=O)[C@H](CC(=O)O)NC1=O)NC(=O)[C@H](CC(C)(C)C)NC(=O)[C@H](CCC(=O)O)NC2=O (stereo partly drawn) [I-1029, Ac-PL3-Glu-Npg-B5-Asp-Asp-Ala-Ala-Phe-Asn-PyrS2-2C1F-BztA-dThr-NH2]
- IC50 [1]: 0.823 µM
- chromatographic logD (CHI Log D procedure): 2.36
- Solubility (Solubility in PBS; Solubility (uM)): 49 µM (≈ 94.7 µg/mL)
- IC50 [2]: > 20 µM
- IC50 [3, 4]: > 20 µM

SMILES: CC(=O)N1CCC[C@]12CC=CCCCC1(CCCC=CCCCOC(=O)N3CC[C@@](C(=O)N[C@@H](Cc4ccccc4Cl)C(=O)N[C@@H](Cc4csc5ccccc45)C(=O)N[C@@H](C(N)=O)[C@H](C)O)(C3)NC(=O)[C@H](CC(N)=O)NC(=O)[C@H](Cc3ccccc3)NC(=O)[C@H](C)NC(=O)[C@H](C)NC(=O)[C@H](CC(=O)O)NC(=O)[C@H](CCC(=O)O)NC1=O)NC(=O)[C@H](CC(C)(C)C)NC(=O)[C@H](CC(=O)O)NC2=O (stereo partly drawn) [I-1030, Ac-PL3-Asp-Npg-B5-Glu-Asp-Ala-Ala-Phe-Asn-PyrS2-2C1F-BztA-dThr-NH2]
- IC50 [1]: 0.507 µM
- chromatographic logD (CHI Log D procedure): 2.76
- Solubility (Solubility in PBS; Solubility (uM)): 47 µM (≈ 90.9 µg/mL)
- IC50 [2]: > 20 µM
- IC50 [3, 4]: > 20 µM

SMILES: CC(=O)N1CCC[C@]12CC=CCCCC1(CCCC=CCCCOC(=O)N3CC[C@@](C(=O)N[C@@H](Cc4ccccc4Cl)C(=O)N[C@@H](Cc4csc5ccccc45)C(=O)N[C@@H](C(N)=O)[C@H](C)O)(C3)NC(=O)[C@H](Cc3ccccc3)NC(=O)[C@H](Cc3ccccc3)NC(=O)[C@H](C)NC(=O)[C@H](C)NC(=O)[C@H](CC(=O)O)NC(=O)[C@H](CC(=O)O)NC1=O)NC(=O)[C@H](CC(C)(C)C)NC(=O)[C@H](CC(=O)O)NC2=O (stereo partly drawn) [I-1034, Ac-PL3-Asp-Npg-B5-Asp-Asp-Ala-Ala-Phe-Phe-PyrS2-2C1F-BztA-dThr-NH2]
- IC50 [1]: 0.027 µM
- chromatographic logD (CHI Log D procedure): 2.71
- Solubility (Solubility in PBS; Solubility (uM)): 12 µM (≈ 23.4 µg/mL)
- IC50 [2]: 9.5 µM
- IC50 [3, 4]: 11.9 µM
- IC50 [3, 5]: 4 µM

SMILES: CC(=O)N1CCC[C@]12CC=CCCCC1(CCCC=CCCCOC(=O)N3CC[C@@](C(=O)N[C@@H](Cc4ccccc4Cl)C(=O)N[C@@H](Cc4csc5ccccc45)C(=O)N[C@@H](C(N)=O)[C@H](C)O)(C3)NC(=O)[C@H](CC(C)C)NC(=O)[C@H](Cc3ccccc3)NC(=O)[C@H](C)NC(=O)[C@H](C)NC(=O)[C@H](CC(=O)O)NC(=O)[C@H](CC(=O)O)NC1=O)NC(=O)[C@H](CC(C)(C)C)NC(=O)[C@H](CC(=O)O)NC2=O (stereo partly drawn) [I-1035, Ac-PL3-Asp-Npg-B5-Asp-Asp-Ala-Ala-Phe-Leu-PyrS2-2C1F-BztA-dThr-NH2]
- IC50 [1]: 0.021 µM
- chromatographic logD (CHI Log D procedure): 2.63
- Solubility (Solubility in PBS; Solubility (uM)): 28 µM (≈ 53.7 µg/mL)
- IC50 [2]: 10.2 µM
- IC50 [3, 4]: > 20 µM

SMILES: CC(=O)N1CCC[C@]12CC=CCCCC1(CCCC=CCCCOC(=O)N3CC[C@@](C(=O)N[C@@H](Cc4ccccc4Cl)C(=O)N[C@@H](Cc4csc5ccccc45)C(=O)N[C@@H](CCC(N)=O)C(N)=O)(C3)NC(=O)[C@H](CO)NC(=O)[C@H](Cc3ccccc3)NC(=O)[C@H](C)NC(=O)[C@H](C)NC(=O)[C@H](CC(=O)O)NC(=O)[C@H](CC(=O)O)NC1=O)NC(=O)[C@H](CC1CCCCC1)NC(=O)[C@H](CC(=O)O)NC2=O (stereo partly drawn) [I-1044, Ac-PL3-Asp-Cha-B5-Asp-Asp-Ala-Ala-Phe-Ser-PyrS2-2C1F-BztA-Gln-NH2]
- IC50 [1]: 0.005 µM
- chromatographic logD (CHI Log D procedure): 2.32
- Solubility (Solubility in PBS; Solubility (uM)): 43 µM (≈ 83.7 µg/mL)
- IC50 [2]: 17.6 µM
- IC50 [3, 4]: 20 µM
- IC50 [3, 5]: 14.5 µM

From US20240116985A1, “STAPLED PEPTIDES AND METHODS THEREOF” (priority 2020, published 2024)
